Results reported in US7816408B2, “Calcium receptor active compounds” (NPS Pharmaceuticals, Inc., priority 2002, dated 2010).

Columns and labels:
normal male SD rats = assay: Plasma Ca^2+ level of rats after single oral administration; format: in vivo; conditions: rat, mean of six animals, vehicle 10% cyclodextrin (** 1% sodium-CMC); for Plasma Ca^2+ (mmol/l) 1 hr: 1 hr after single oral dose 30 μmol/kg; for Plasma Ca^2+ (mmol/l) 2 hr: 2 hr after single oral dose 30 μmol/kg; for Plasma Ca^2+ (mmol/l) 4 hr: 4 hr after single oral dose 30 μmol/kg; for Plasma Ca^2+ (mmol/l) 8 hr: 8 hr after single oral dose 30 μmol/kg; for Plasma Ca^2+ (mmol/l) 24 hr: 24 hr after single oral dose 30 μmol/kg; for Plasma Ca^2+ (mmol/l) 0 hr: 0 hr = before oral administration of 30 μmol/kg
Experimental: The compound of the present invention was administered to rats so as to examine the effects of the compound on the plasma calcium ion level and serum PTH level. The test was performed by orally administering single dose of the compound of the invention or a control compound to normal male SD rats with six animals in each group.
To the group 1 was administered as a control a 10% cyclodextrin aqueous solution in a dose of 2.5 ml/kg. To the group 2 was administered as a reference (R)-N-(3-(2-chlorophenyl)propyl)-1-(3-methoxyphenyl)ethylamine (KRN568) dissolved in a 10% cyclodextrin aqueous solution in a dose of 30 μmol/kg. To the group 3 was administered the compound of the present invention dissolved in a 10% cyclodextrin aqueous solution in a dose of 30 μmol/kg, provided that 1% sodium-CMC aqueous solution was used in place of 10% cyclodextrin aqueous solution for the compounds marked with ** in Table 2.
Blood of each rat was collected from the tail tip before the administration and 30 minutes and 1, 2, 4, 8 and 24 hours thereafter (or at the time indicated in Table 2), and the plasma Ca^2+ level and serum PTH level were measured. The data of the serum PTH level were statistically processed by the multiple comparison analysis in accordance with Steel's calibration by using the group 1 as the control.

human calcium receptor = target: T1, human calcium receptor (Homo sapiens, UniProt P41180); assay: Activity on calcium receptors: fluo-3 fluorescence in HEK293 cells transfected with human calcium receptor gene; format: cell-based; conditions: HEK293 cells transfected with plasmid pHuPCaR4.0 (human calcium receptor gene), loaded with fluo-3; 1 mM CaCl2, 1 mM MgCl2
T1 construct: expressed in transfected cells; host or cells: HEK293
T1 sequence (P41180 20-1078): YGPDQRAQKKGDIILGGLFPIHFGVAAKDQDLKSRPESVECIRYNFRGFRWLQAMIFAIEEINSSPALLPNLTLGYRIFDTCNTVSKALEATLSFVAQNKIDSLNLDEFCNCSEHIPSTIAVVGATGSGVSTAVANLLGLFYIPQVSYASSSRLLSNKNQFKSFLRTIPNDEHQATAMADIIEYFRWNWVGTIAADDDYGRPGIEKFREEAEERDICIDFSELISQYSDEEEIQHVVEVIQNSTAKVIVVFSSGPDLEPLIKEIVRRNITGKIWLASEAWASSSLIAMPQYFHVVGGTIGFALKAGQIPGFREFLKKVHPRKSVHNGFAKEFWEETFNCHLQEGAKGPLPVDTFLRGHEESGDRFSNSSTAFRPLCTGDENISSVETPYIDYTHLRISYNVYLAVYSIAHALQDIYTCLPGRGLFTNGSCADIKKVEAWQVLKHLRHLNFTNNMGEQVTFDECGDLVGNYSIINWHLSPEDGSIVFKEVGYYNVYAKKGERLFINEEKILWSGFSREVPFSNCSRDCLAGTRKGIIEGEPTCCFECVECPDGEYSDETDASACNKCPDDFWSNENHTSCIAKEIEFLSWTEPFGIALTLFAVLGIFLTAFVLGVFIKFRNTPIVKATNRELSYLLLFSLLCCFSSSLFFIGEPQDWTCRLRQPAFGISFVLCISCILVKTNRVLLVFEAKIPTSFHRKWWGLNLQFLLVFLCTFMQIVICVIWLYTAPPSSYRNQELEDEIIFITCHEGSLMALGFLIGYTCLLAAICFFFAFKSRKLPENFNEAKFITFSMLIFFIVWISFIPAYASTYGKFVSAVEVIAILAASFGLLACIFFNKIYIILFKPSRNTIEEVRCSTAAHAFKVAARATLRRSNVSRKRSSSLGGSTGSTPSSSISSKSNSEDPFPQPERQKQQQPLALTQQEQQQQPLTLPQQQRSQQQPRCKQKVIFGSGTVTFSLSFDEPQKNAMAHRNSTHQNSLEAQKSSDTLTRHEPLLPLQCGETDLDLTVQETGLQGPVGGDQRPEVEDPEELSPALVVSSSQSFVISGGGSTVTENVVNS
Experimental: The activities of the compounds of the present invention on calcium receptors were measured. The measurement was performed in accordance with the method described in Example 4 of Nemeth et al., PCT/US95/13704 (International Publication No. WO96/12697). In brief, HEK293 cells were transfected with a plasmid pHuPCaR4.0 containing a human calcium receptor gene and loaded with fluo-3. The loading was carried out by incubating the cells at 37° C. for 1 hour in Dulbecco's modified Eagle's medium which contained about 5 μM of fluo-3/AM and had been buffered with 20 mM HEPES. Next, the cells were rinsed with Hank's balanced salt solution which contained 1 mM CaCl2 and 1 mM MgCl2 and had been buffered with 20 mM HEPES. Then each test compound was added to the cells and the fluorescence was measured with the use of an excitation wavelength of 485 nm and an emission wavelength of 540 nm.

SMILES	EC50 (human calcium receptor) [nM]	Plasma Ca^2+ (mmol/l) 1 hr (normal male SD rats) [mmol/L]	Plasma Ca^2+ (mmol/l) 2 hr (normal male SD rats) [mmol/L]	Plasma Ca^2+ (mmol/l) 4 hr (normal male SD rats) [mmol/L]	Plasma Ca^2+ (mmol/l) 8 hr (normal male SD rats) [mmol/L]	Plasma Ca^2+ (mmol/l) 24 hr (normal male SD rats) [mmol/L]	Plasma Ca^2+ (mmol/l) 0 hr (normal male SD rats) [mmol/L]
C[C@@H](NCCC(=O)N(Cc1ccc(Cl)c(Cl)c1)Cc1ccc(Cl)c(Cl)c1)c1cccc2ccccc12 [Compound K-2265, N1,N1-di(3,4-dichlorobenzyl)-3-{[(1R)-1-(1-naphthyl)ethyl]amino}propanamide]	61	1.430	1.363	1.260	1.218	–	–
COc1ccc(CN(Cc2ccc(OC)cc2)C(=O)CCN[C@H](C)c2cccc3ccccc23)cc1 [Compound K-2270, N1,N1-di(4-methoxybenzyl)-3-{[(1R)-1-(1-naphthyl)ethyl]amino}propanamide]	140	1.355	1.238	1.088	1.175	–	–
C[C@@H](NCCC(=O)N(Cc1ccc(Cl)cc1)Cc1ccc(Cl)c(Cl)c1)c1cccc2ccccc12 [Compound K-2267, N1-(4-chlorobenzyl)-N1-(3,4-dichlorobenzyl)-3-{[(1R)-1-(1-naphthyl)ethyl]amino}propanamide]	14	1.347	1.212	1.027	1.022	1.312	–
COc1ccc(SCCCCCN[C@H](C)c2cccc3ccccc23)cc1 [Compound K-2280]	270	1.233	1.167	1.077	1.142	1.405	1.443
C[C@@H](NCCC(=O)N(Cc1ccc(Cl)cc1)Cc1ccccc1Cl)c1cccc2ccccc12 [Compound K-2262, N1-(2-chlorobenzyl)-N1-(4-chlorobenzyl)-3-{[(1R)-1-(1-naphthyl)ethyl]amino}propanamide]	84	1.390	1.260	1.138	1.142	–	–
COc1ccc(CN(Cc2ccc(OC(F)(F)F)cc2)C(=O)CCN[C@H](C)c2cccc3ccccc23)cc1 [Compound K-2311]	53	1.375	1.232	1.075	1.110	–	1.447
C[C@@H](NCCC(=O)N(Cc1ccc(Cl)cc1)Cc1ccc(OC(F)(F)F)cc1)c1cccc2ccccc12 [Compound K-2283, N1-(4-chlorobenzyl)-N1-[4-(trifluoromethoxy)benzyl)-3-{[(1R)-1-(1-naphthyl)ethyl]-amino}propanamide]	93	1.395	1.305	1.210	1.253	–	–
COc1ccc(CN(Cc2ccc(O)cc2)C(=O)CCNC(C)c2cccc3ccccc23)cc1 (centres unmarked) [Compound K-2312]	80	–	–	–	–	–	–
COc1cccc(C(C)NCCCSc2ccc(Cl)cc2)c1 (centres unmarked) [Compound 28]	1600	–	–	–	–	–	–
COc1cccc(C(C)NCCCCSc2ccc([N+](=O)[O-])cc2)c1 (centres unmarked) [Compound K-2033]	350	–	–	–	–	–	–
COc1cccc(C(C)NCCCCOc2cccc(Cl)c2)c1 (centres unmarked) [Compound 8]	1900	–	–	–	–	–	–
COc1cccc([C@@H](C)NCCCCCCSc2nc3ccccc3s2)c1 [Compound 40]	5100	–	–	–	–	–	–
COc1cccc(C(C)NCCCCSc2nc3ccccc3s2)c1 (centres unmarked) [Compound 36]	210	–	–	–	–	–	–
COc1cccc(C(C)NCCCCCOc2ccc(Br)cc2)c1 (centres unmarked) [Compound K-2005]	430	–	–	–	–	–	–

Further lines, with some results ahead:

EC50 (human calcium receptor) [nM]	SMILES	Plasma Ca^2+ (mmol/l) 1 hr (normal male SD rats) [mmol/L]	Plasma Ca^2+ (mmol/l) 2 hr (normal male SD rats) [mmol/L]	Plasma Ca^2+ (mmol/l) 4 hr (normal male SD rats) [mmol/L]	Plasma Ca^2+ (mmol/l) 8 hr (normal male SD rats) [mmol/L]	Plasma Ca^2+ (mmol/l) 24 hr (normal male SD rats) [mmol/L]	Plasma Ca^2+ (mmol/l) 0 hr (normal male SD rats) [mmol/L]
500	Cc1ccc(SCCCCN[C@H](C)c2cccc3ccccc23)c(C)c1 [Compound K-2302, N-{4-[(2,4-dimethylphenyl)thio]butyl}-N-[(1R)-1-(1-naphthyl)ethyl]amine]	1.238	1.130	0.978	1.010	–	–
340	C[C@@H](NCCCCSc1cc(Cl)ccc1Cl)c1cccc2ccccc12 [Compound K-2298, N-{4-[(2,5-dichlorophenyl)thio]butyl}-N-[(1R)-1-(1-naphthyl)ethyl]amine]	1.348	1.265	1.187	1.100	–	–
74	COc1ccc(CN(Cc2ccc(Cl)cc2)C(=O)CCN[C@H](C)c2cccc3ccccc23)cc1 [Compound K-2289, N1-(4-chlorobenzyl)-N1-(4-methoxybenzyl)-3-{[(1R)-1-(1-naphthyl)ethyl]amino}propanamide]	1.270	1.173	1.003	1.093	–	–
74	C[C@@H](NCCCCCCCSc1c(F)c(F)c(C(F)(F)F)c(F)c1F)c1cccc2ccccc12 [Compound K-2292, N-[(1R)-1-(1-naphthyl)ethyl]-N-(7-{[2,3,5,6-tetrafluoro-4-(trifluoromethyl)phenyl]thio}heptyl)amine]	1.375	1.252	1.152	1.108	–	–
280	C[C@@H](NCCCCSc1ccc(Cl)cc1)c1cccc2ccccc12 [Compound K-2293, N-{4-[(4-chlorophenyl)thio]butyl}-N-[(1R)-1-(1-naphthyl)ethyl]amine]	1.245	1.152	1.068	1.088	–	–
110	Cc1ccc(SCCCCCN[C@H](C)c2cccc3ccccc23)cc1 [Compound K-2305]	1.242	1.170	1.098	1.202	–	1.415
